From patent US8501804B2, “Bicyclic compound” (Takeda Pharmaceutical Company Limited, priority 2008, dated 2013)

Tests used:
[1] = target: T1, human ACC2 (Nd) (Homo sapiens, UniProt O00763); assay: ACC2 inhibitory activity (malachite green); assay type: biochemical; details: test compound 10 μM; for inhibition at 10 µM: read-out: ACC2 10 μM inhibitory rate (%)
T1 construct: His6 (from vector pFAST-BacHTa); made in house; host or cells: SF-9 insect cells, recombinant baculovirus BAC-ACC2 (Nd)
Method: The ACC2 inhibitory action of the compound of the present invention was evaluated by the following method.
(1) Cloning of Human ACC2 Gene and Preparation of Recombinant Baculovirus
(§1) Human ACC2 gene was cloned by PCR using a human skeletal muscle cDNA library (Clontech) as a template and Primer 1 and Primer 2 shown below. Primer 1 and Primer 2 were prepared by adding SalI, XbaI restriction enzyme recognition sequences based on the information of the base sequence of human ACC2 gene (Genbank Accession U89344).
(§2) PCR was performed using Pyrobest DNA polymerase (TAKARA BIO INC.). The obtained PCR product was cloned to pT7 Blue vector (Novagen) and, after confirmation of the base sequence, digested with restriction enzymes SalI and XbaI. The obtained DNA fragment was inserted into pFAST-BacHTa (Invitrogen) digested with restriction enzymes SalI and XbaI to give expression plasmid ACC2/pFAST-BacHTa.
A plasmid for expression of ACC2 without a mitochondrial targeting sequence was prepared by PCR using the expression plasmid as a template, and Primer 3 (SalI restriction enzyme recognition sequence was added) and Primer 4 prepared by reference to the information of human ACC2 gene base sequence (Genbank Accession U89344).
as §2, with “Pyrobest-DNA” for “Pyrobest DNA”, “AflII.” for “XbaI.”, “ACC2/pFAST-BacHTa” for “pFAST-BacHTa (Invitrogen)”, “AflII” for “XbaI”, “ACC2mito7/pFAST-BacHTa.” for “ACC2/pFAST-BacHTa.”
Using the expression plasmid ACC2mito7/pFAST-BacHTa and BAC-TO-BAC Baculovirus Expression System (Invitrogen), virus stock BAC-ACC2 of recombinant Baculovirus (N terminal deleted (hereinafter Nd)) was prepared.
(2) Preparation of ACC2 (Nd) Protein
SF-9 cells (Invitrogen) were inoculated to a medium (2 L) for insect cells (Sf-900IISFM medium (Invitrogen) containing 10% fetal bovine serum (Trace), 50 mg/L Gentamicin (Invitrogen), 0.1% Pluronic F-68 (Invitrogen)) at 0.5×10^6 cells/mL, and cultured with shaking in Wave Bioreactor (Wave) at 27° C., 20 rpm, rocking angle 6°, oxygen concentration 30%.
On day 4 of the culture, 3 L of the medium for insect cells was added, the rocking angle was set to 8°, and the cells were cultured. On day 5 of the culture, 100 ml of recombinant Baculovirus BAC-ACC2 (Nd) was added, 5 L of the medium for insect cells was further added, the rocking angle was set to 11°, and the cells were cultured for 3 days. The culture medium was centrifuged at 1000×g for 10 min to give virus-infected cells. The cells were washed with phosphate buffered saline (Invitrogen) and centrifuged under the same conditions. The obtained cells were cryopreserved at −80° C.
The cryopreserved cells were thawed in ice and suspended in 900 ml of 25 mM HEPES buffer (pH 7.5) containing 10% Glycerol, 0.13 M NaCl, 1 mM EDTA, 25 mM Sodium β-Glycerophosphate and 1 mM Sodium Orthovanadate, and supplemented with Complete Protease Inhibitor (Nippon Boehringer Ingelheim Co., Ltd.). The obtained suspension was homogenized three times in a polytron homogenizer (Kinematica) at 20,000 rpm for 30 sec. The obtained cell disruption solution was clarified by centrifugation at 31000×g for 60 min, and filtered through a 0.45 μm filter. The filtrate was passed through a column packed with 60 mL of Ni-NTA Super Flow Gel (QUIAGEN) at a flow rate of about 5 mL/min. The column was washed with buffer A (50 mM HEPES (pH 7.5) containing 0.3 M NaCl), further washed with buffer A containing 20 mM Imidazole, and eluted with buffer A containing 100 mM Imidazole. The eluate was concentrated with Vivaspin 20 (Vivascience) with a molecular weight cut off of 30K. The obtained concentrate was dialyzed against 50 mM HEPES (pH 7.5) containing 10 mM MgCl2, 2 mM Dithiothreitol, 10 mM Tripotassium Citrate and 0.3 M NaCl. The inner dialysate was filtered through a 0.22 μm filter to give ACC2 (Nd). […]

[2] = target: T2, human ACC1 (Homo sapiens, UniProt Q13085); assay: ACC1 inhibitory activity (malachite green); assay type: biochemical; details: test compound 10 μM; for inhibition at 10 µM: read-out: ACC1 10 μM inhibitory rate (%)
T2 construct: His6 (from vector pFAST-BacHTc); made in house; host or cells: SF-9 insect cells, recombinant baculovirus BAC-ACC1
Method: The ACC1 inhibitory action of the compound of the present invention was evaluated by the following method.
(1) Cloning of Human ACC1 Gene and Preparation of Recombinant Baculovirus
as §1, with “ACC1” for “ACC2”, “liver” for “skeletal muscle”, “NotI” for “XbaI”, “U19822).” for “U89344).”
as §2, with “NotI.” for “XbaI.”, “pFAST-BacHTc” for “pFAST-BacHTa”, “NotI” for “XbaI”, “ACC1/pFAST-BacHTc.” for “ACC2/pFAST-BacHTa.”
Using the expression plasmid ACC1/pFAST-BacHTc and BAC-TO-BAC Baculovirus Expression System (Invitrogen), virus stock BAC-ACC1 of recombinant Baculovirus was prepared.
(2) Preparation of ACC1 Protein
SF-9 cells (Invitrogen) were inoculated to a medium (1 L) for insect cells (Sf-900IISFM medium (Invitrogen) containing 10% fetal bovine serum (Trace), 50 mg/L Gentamicin (Invitrogen), 0.1% Pluronic F-68 (Invitrogen)) at 1×10^6 cells/mL, and cultured with shaking in 2 L meyer at 27° C., 100 rpm.
After 24 hr of the culture, 10 mL of recombinant Baculovirus BAC-ACC1 was added, and the cells were cultured for 3 days. The culture medium was centrifuged at 1000×g for 5 min to give virus-infected cells. The cells were washed with phosphate buffered saline (Invitrogen) and centrifuged under the same conditions. The obtained cells were cryopreserved at −80° C.
The cryopreserved cells were thawed in ice and suspended in 100 mL of 25 mM HEPES buffer (pH 7.5) containing 10% Glycerol, 0.13 M NaCl, 1 mM EDTA, 25 mM Sodium […] and 1 mM Sodium Orthovanadate, and supplemented with Complete Protease Inhibitor (Nippon Boehringer Ingelheim Co., Ltd.). The obtained suspension was homogenized three times in a polytron homogenizer (Kinematica) at 20,000 rpm for 30 sec. The obtained cell disruption solution was clarified by centrifugation at 185700×g for 50 min, and filtered through a 0.45 μm filter. The filtrate was passed through a column packed with 12 ml of Ni-NTA Super Flow Gel (QUIAGEN) at a flow rate of about 5 mL/min. The column was washed with buffer A (50 mM HEPES (pH 7.5) containing 0.3 M NaCl), further washed with buffer A containing 20 mM Imidazole, and eluted with buffer A containing 100 mM Imidazole. The eluate was concentrated with Vivaspin 20 (Vivascience) with a molecular weight cut off of 30K. The obtained concentrate was dialyzed against Sephadex G-25 (Amersham Biosciences, 358 mL) equilibrated with 50 mM HEPES (pH 7.5) containing 10 mM MgCl2, 2 mM Dithiothreitol, 10 mM Tripotassium Citrate and 0.3 M NaCl. The inner dialysate was concentrated with Vivaspin 20 (Vivascience) with molecular weight cut off of 30K, and concentrate was filtered through a 0.22 μm filter to give ACC1. The obtained ACC1 was cryopreserved at −80° C.
(3) Measurement of ACC1 Inhibitory Activity
ACC1 (0.93 mg/ml) obtained in the above-mentioned (2) was diluted with an enzyme reaction buffer (50 mM HEPES (pH 7.5), 10 mM MgCl2, 10 mM Tripotassium Citrate, 2 mM Dithiothreitol, 0.75 mg/ml Fatty acid free BSA) to a concentration of 8 μg/ml, and the mixture was added to each well of a 384 well assay plate (Nunc 265196) by 10 μl. A test compound was dissolved in dimethyl sulfoxide (DMSO) and the mixture was diluted with an enzyme reaction buffer and the resulting solution (5 μl) was added to each well. The mixture was incubated at 30° C. for 60 min. Then, a substrate solution (50 mM KHCO3, 200 μM ATP, 200 μM Acetyl-CoA, 5 μl) was added to each well, and the mixture was reacted at 30° C. for 20 min (test compound addition group). […]

T1 sequence (O00763 117-2458 limits assumed): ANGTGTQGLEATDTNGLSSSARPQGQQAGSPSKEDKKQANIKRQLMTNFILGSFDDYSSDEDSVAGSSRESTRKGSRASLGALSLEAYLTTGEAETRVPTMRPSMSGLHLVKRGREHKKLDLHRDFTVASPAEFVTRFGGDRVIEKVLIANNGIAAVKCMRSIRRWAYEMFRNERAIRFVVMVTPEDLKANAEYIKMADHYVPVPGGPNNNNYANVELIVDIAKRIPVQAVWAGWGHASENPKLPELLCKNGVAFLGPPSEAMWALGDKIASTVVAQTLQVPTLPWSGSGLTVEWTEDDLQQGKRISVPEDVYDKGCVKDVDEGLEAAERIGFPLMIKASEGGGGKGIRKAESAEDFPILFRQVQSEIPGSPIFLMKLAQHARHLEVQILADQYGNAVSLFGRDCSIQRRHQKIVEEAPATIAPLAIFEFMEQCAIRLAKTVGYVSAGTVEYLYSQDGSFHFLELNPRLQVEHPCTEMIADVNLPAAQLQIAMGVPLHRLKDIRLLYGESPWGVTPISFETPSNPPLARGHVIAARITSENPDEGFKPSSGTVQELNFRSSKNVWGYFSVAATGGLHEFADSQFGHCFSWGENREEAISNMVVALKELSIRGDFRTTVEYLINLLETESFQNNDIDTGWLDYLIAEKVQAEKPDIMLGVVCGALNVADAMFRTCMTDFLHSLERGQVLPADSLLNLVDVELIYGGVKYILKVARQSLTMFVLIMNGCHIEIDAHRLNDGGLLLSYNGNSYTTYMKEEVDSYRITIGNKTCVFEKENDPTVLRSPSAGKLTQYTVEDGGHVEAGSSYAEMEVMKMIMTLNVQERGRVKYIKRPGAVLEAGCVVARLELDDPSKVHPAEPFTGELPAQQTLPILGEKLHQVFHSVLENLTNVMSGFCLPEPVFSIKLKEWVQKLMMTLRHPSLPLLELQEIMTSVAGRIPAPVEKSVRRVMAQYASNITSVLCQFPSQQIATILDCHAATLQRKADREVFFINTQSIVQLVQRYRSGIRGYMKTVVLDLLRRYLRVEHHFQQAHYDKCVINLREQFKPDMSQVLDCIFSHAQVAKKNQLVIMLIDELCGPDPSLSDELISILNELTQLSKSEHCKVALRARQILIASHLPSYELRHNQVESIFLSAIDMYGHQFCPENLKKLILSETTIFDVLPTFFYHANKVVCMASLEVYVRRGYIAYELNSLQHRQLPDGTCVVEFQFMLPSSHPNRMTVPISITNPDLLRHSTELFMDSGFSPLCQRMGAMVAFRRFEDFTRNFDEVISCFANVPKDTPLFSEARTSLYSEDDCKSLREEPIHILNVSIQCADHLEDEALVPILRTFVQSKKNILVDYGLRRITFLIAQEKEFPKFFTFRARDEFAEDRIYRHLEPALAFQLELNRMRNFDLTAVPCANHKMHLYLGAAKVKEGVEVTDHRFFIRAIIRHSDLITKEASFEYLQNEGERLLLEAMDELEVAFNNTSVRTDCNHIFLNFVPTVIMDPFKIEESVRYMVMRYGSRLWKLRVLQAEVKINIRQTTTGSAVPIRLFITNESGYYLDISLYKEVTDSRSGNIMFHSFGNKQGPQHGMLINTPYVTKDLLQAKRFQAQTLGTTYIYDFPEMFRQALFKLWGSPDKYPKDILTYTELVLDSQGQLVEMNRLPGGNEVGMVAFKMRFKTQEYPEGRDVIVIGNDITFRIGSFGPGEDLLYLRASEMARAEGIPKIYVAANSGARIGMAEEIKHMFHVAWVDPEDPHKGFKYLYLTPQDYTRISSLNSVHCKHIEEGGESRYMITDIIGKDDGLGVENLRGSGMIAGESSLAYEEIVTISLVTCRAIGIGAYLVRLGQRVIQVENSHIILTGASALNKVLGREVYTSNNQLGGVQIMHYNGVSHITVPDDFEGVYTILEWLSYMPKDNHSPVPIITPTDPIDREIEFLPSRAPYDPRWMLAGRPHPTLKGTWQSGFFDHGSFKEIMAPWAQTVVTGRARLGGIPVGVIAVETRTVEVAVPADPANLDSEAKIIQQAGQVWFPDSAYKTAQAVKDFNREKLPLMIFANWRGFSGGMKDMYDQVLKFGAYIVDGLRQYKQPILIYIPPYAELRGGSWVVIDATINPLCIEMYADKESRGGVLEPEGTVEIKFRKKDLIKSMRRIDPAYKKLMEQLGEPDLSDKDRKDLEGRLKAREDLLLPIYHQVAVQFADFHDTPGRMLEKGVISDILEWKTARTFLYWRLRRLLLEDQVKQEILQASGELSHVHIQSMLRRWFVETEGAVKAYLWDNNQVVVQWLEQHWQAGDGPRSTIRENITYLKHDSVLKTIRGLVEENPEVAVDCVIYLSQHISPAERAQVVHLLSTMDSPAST

Row | inhibition at 10 µM [1] [%] | inhibition at 10 µM [2] [%] | ACC2 10 μM inhibitory rate (%) [1] [%] | ACC1 10 μM inhibitory rate (%) [2] [%] | SMILES
1 | 55 | 33 | – | – | CC(=O)NC(C)c1cc2cc(OCc3ccc(OCC4CC4)cc3Cl)ccc2o1 (centres unmarked) [Example 134 (retention time longer), N-[1-(5-{[2-chloro-4-(cyclopropylmethoxy)benzyl]oxy}-1-benzofuran-2-yl)ethyl]acetamide]
2 | 81 | 14 | – | – | CCOc1ccc(CCc2cc3oc(C(C)NC(C)=O)cc3cn2)cc1 (centres unmarked) [Example 135, N-(1-{6-[2-(4-ethoxyphenyl)ethyl]furo[3,2-c]pyridin-2-yl}ethyl)acetamide]
3 | 70 | 22 | – | – | CC(=O)NC(C)c1cc2ccc(C#Cc3ccc(OCC4CC4)nc3)cc2o1 (centres unmarked) [Example 138, N-[1-(6-{[6-(cyclopropylmethoxy)pyridin-3-yl]ethynyl}-1-benzofuran-2-yl)ethyl]acetamide]
4 | 100 | 37 | – | – | CC(=O)N[C@@H](C)[C@@H]1Cc2ccc(C#Cc3ccc(OCC4CC4)nc3)cc2O1 [Example 139, N-{(1S)-1-[(2S)-6-{[6-(cyclopropylmethoxy)pyridin-3-yl]ethynyl}-2,3-dihydro-1-benzofuran-2-yl]ethyl}acetamide]
5 | – | – | 66 | 20 | CC(=O)NC(C)C1Cc2cc(OCc3ccc(OCC4CC4)cc3F)ccc2O1 (centres unmarked) [Example 140, N-[1-(5-{[4-(cyclopropylmethoxy)-2-fluorobenzyl]oxy}-2,3-dihydro-1-benzofuran-2-yl)ethyl]acetamide]
6 | – | – | 95 | 41 | CC(=O)NC(C)C1Cc2cc(OCc3ccc(OCC4CC4)cc3F)ccc2O1 (centres unmarked) [Example 141 (retention time shorter), N-[1-(5-{[4-(cyclopropylmethoxy)-2-fluorobenzyl]oxy}-2,3-dihydro-1-benzofuran-2-yl)ethyl]acetamide]
7 | 74 | 42 | – | – | CC(=O)N[C@@H](C)[C@@H]1Cc2ccc(OCc3cnc(OCC4CC4)cc3F)cc2O1 [Example 142, N-{(1S)-1-[(2S)-6-{[6-(cyclopropylmethoxy)-4-fluoropyridin-3-yl]methoxy}-2,3-dihydro-1-benzofuran-2-yl]ethyl}acetamide]
8 | 73 | 8 | – | – | CC(=O)N[C@@H](C)[C@@H]1Cc2ccc(OCc3ccc(OCC4CC4)nc3F)cc2O1 [Example 143, N-{(1S)-1-[(2S)-6-{[6-(cyclopropylmethoxy)-2-fluoropyridin-3-yl]methoxy}-2,3-dihydro-1-benzofuran-2-yl]ethyl}acetamide]
9 | 88 | 48 | – | – | CC(=O)N[C@@H](C)[C@@H]1Cc2ccc(OCc3ccc(OCC4CC4)cc3)cc2O1 [Example 144, N-{(1S)-1-[(2S)-6-{[4-(cyclopropylmethoxy)benzyl]oxy}-2,3-dihydro-1-benzofuran-2-yl]ethyl}acetamide]
10 | 88 | 42 | – | – | CC(=O)N[C@@H](C)[C@@H]1Cc2ccc(OCc3ccc(OCC4CC4)cc3F)cc2O1 [Example 145, N-{(1S)-1-[(2S)-6-{[4-(cyclopropylmethoxy)-2-fluorobenzyl]oxy}-2,3-dihydro-1-benzofuran-2-yl]ethyl}acetamide]
11 | 84 | 40 | – | – | CC(=O)N[C@@H](C)[C@@H]1Cc2ccc(OCc3ccc(OC[C@@H]4CCCO4)cc3F)cc2O1 [Example 146, N-{(1S)-1-[(2S)-6-({2-fluoro-4-[(2S)-tetrahydrofuran-2-ylmethoxy]benzyl}oxy)-2,3-dihydro-1-benzofuran-2-yl]ethyl}acetamide]
12 | 81 | 27 | – | – | CC(=O)NC(C)c1cc2ccc(CCc3ccc(OCC4CC4)cc3)cc2o1 (centres unmarked) [Example 150, N-[1-(6-{2-[4-(cyclopropylmethoxy)phenyl]ethyl}-1-benzofuran-2-yl)ethyl]acetamide]
13 | 78 | 39 | – | – | CC(=O)NC(C)c1cc2ccc(CCc3ccc4c(c3)C(C)(C)CO4)cc2o1 (centres unmarked) [Example 152, N-(1-{6-[2-(3,3-dimethyl-2,3-dihydro-1-benzofuran-5-yl)ethyl]-1-benzofuran-2-yl}ethyl)acetamide]
